Counter-ions that a name gives are not always drawn.
Key:
human CYP11B2 = biological target: T1, human CYP11B2 (Homo sapiens, UniProt P19099); assay: G-402 cellular enzyme assay, human CYP11B2 (aldosterone release, HTRF); assay type: cell-based; details: G-402 cells expressing human CYP11B2; 1 μM Deoxycorticosterone
T1 construct: expressed in transfected cells
T1 sequence (P19099 25-503): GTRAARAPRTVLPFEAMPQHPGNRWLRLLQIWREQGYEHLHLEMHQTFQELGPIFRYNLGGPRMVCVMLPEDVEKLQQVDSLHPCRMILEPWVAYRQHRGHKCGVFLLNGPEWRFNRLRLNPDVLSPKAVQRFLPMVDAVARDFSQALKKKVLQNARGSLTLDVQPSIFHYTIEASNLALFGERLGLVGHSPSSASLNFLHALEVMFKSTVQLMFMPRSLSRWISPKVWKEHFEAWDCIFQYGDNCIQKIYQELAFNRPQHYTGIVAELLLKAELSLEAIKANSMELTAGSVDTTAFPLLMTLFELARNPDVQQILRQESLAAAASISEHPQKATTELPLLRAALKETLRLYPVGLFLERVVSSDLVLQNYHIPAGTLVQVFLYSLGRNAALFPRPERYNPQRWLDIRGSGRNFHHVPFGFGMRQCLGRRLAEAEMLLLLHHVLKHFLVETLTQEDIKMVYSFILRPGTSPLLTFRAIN
Procedure, shortened: (§1)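 EC50 comes from least-squares fitting of a 4-parameter MMF curve to steroid product levels, measured by HTRF as aldosterone for CYP11B2 or cortisol for CYP11B1. Stably transfected G-402 host cells were given substrate (1 μM deoxycorticosterone or deoxycortisol, respectively) with inhibitor for 16 h in medium with 2.5% charcoal-treated FCS.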

human CYP11B1 = biological target: T2, human CYP11B1 (Homo sapiens, UniProt P15538); assay: G-402 cellular enzyme assay, human CYP11B1 (cortisol release, HTRF); assay type: cell-based; details: G-402 cells expressing human CYP11B1; 1 μM Deoxycortisol
T2 construct: expressed in transfected cells
T2 sequence (P15538 25-503): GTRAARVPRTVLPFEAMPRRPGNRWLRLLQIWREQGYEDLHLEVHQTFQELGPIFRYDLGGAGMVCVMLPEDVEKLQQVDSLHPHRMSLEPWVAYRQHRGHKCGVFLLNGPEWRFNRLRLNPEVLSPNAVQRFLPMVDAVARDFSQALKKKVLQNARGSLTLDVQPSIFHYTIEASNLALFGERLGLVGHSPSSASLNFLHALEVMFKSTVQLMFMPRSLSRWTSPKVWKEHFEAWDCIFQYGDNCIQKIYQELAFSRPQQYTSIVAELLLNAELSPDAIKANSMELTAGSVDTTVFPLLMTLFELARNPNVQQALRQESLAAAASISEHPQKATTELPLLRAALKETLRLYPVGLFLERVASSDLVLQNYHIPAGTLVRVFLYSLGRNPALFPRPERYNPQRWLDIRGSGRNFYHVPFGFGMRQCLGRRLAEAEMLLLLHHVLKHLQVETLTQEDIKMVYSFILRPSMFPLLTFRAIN
Procedure, shortened: as §1

SMILES	EC50 (human CYP11B2) [nM]	EC50 (human CYP11B1) [nM]
Cc1noc(C)c1C(=O)N(C)Cc1cncc(-c2ccc3c(c2)CCC(=O)N3C)c1 [Example 188, 3,5-Dimethyl-isoxazole-4-carboxylic acid methyl-[5-(1-methyl-2-oxo-1,2,3,4-tetrahydro-quinolin-6-yl)-pyridin-3-ylmethyl]-amide]	14	572
CN1C(=O)CCc2cc(-c3cncc(OCCN4CCCS4(=O)=O)c3)ccc21 [Example 189, 6-{5-[2-(1,1-Dioxo-1λ^6-isothiazolidin-2-yl)-ethoxy]-pyridin-3-yl}-1-methyl-3,4-dihydro-1H-quinolin-2-one]	2	93
CCS(=O)(=O)NCc1cncc(-c2cc3c(cc2F)N(C)C(=O)CC3)c1C [Example 192, Ethanesulfonic acid [5-(7-fluoro-1-methyl-2-oxo-1,2,3,4-tetrahydro-quinolin-6-yl)-4-methyl-pyridin-3-ylmethyl]-amide]	29	1980
CCS(=O)(=O)NCc1cncc(-c2ccc3c(c2)CCC(=O)N3C)c1Cl [Example 193, Ethanesulfonic acid [4-chloro-5-(1-methyl-2-oxo-1,2,3,4-tetrahydro-quinolin-6-yl)-pyridin-3-ylmethyl]-amide]	22	1010
CCS(=O)(=O)NCc1cncc(-c2ccc3c(c2)CCC(=O)N3C)c1C [Example 194, Ethanesulfonic acid [4-methyl-5-(1-methyl-2-oxo-1,2,3,4-tetrahydro-quinolin-6-yl)-pyridin-3-ylmethyl]-amide]	41	1700
CCS(=O)(=O)N(C)CCOc1cncc(-c2ccc3c(c2)CCC(=O)N3C)c1 [Example 195, Ethanesulfonic acid methyl-{2-[5-(1-methyl-2-oxo-1,2,3,4-tetrahydro-quinolin-6-yl)-pyridin-3-yloxy]-ethyl}-amide]	1	56
CN(Cc1cncc(-c2ccc3c(c2)CCC(=O)N3C)c1)C(=O)c1ncccc1Cl [Example 196, 3-Chloro-pyridine-2-carboxylic acid methyl-[5-(1-methyl-2-oxo-1,2,3,4-tetrahydro-quinolin-6-yl)-pyridin-3-ylmethyl]-amide]	8	514
CCC(=O)N(C)CCOc1cncc(-c2ccc3c(c2)CCC(=O)N3C)c1 [Example 197, N-Methyl-N-{2-[5-(1-methyl-2-oxo-1,2,3,4-tetrahydro-quinolin-6-yl)-pyridin-3-yloxy]-ethyl}-propionamide]	4	62
CN(Cc1cncc(-c2ccc3c(c2)CCC(=O)N3C)c1)C(=O)c1cnn(C)c1 [Example 198, 1-Methyl-1H-pyrazole-4-carboxylic acid methyl-[5-(1-methyl-2-oxo-1,2,3,4-tetrahydro-quinolin-6-yl)-pyridin-3-ylmethyl]-amide]	7	188
Cc1cccnc1C(=O)N(C)Cc1cncc(-c2ccc3c(c2)CCC(=O)N3C)c1 [Example 199, 3-Methyl-pyridine-2-carboxylic acid methyl-[5-(1-methyl-2-oxo-1,2,3,4-tetrahydro-quinolin-6-yl)-pyridin-3-ylmethyl]-amide]	3	28
CN(Cc1cncc(-c2cc3c(cc2F)N(C)C(=O)CC3)c1)C(=O)c1ncccc1Cl [Example 200, 3-Chloro-pyridine-2-carboxylic acid [5-(7-fluoro-1-methyl-2-oxo-1,2,3,4-tetrahydro-quinolin-6-yl)-pyridin-3-ylmethyl]-methyl-amide]	1	31
CN1C(=O)CCc2cc(-c3cncc(C4(N(C)C(=O)c5ncccc5Cl)CC4)c3)ccc21 [Example 201, 3-Chloro-pyridine-2-carboxylic acid methyl-{1-[5-(1-methyl-2-oxo-1,2,3,4-tetrahydro-quinolin-6-yl)-pyridin-3-yl]-cyclopropyl}-amide]	24	436
CCS(=O)(=O)NCc1cncc(-c2cc(Cl)c3c(c2)CCC(=O)N3)c1 [Example 203, Ethanesulfonic acid [5-(8-chloro-2-oxo-1,2,3,4-tetrahydro-quinolin-6-yl)-pyridin-3-ylmethyl]-amide]	83	4960
O=C1CCc2cc(-c3cncc(CNC(=O)c4ncccc4Cl)c3)cc(Cl)c2N1 [Example 204, 3-Chloro-pyridine-2-carboxylic acid [5-(8-chloro-2-oxo-1,2,3,4-tetrahydro-quinolin-6-yl)-pyridin-3-ylmethyl]-amide]	20	2240
Cc1noc(C)c1C(=O)NCc1cncc(-c2cc(Cl)c3c(c2)CCC(=O)N3)c1 [Example 205, 3,5-Dimethyl-isoxazole-4-carboxylic acid [5-(8-chloro-2-oxo-1,2,3,4-tetrahydro-quinolin-6-yl)-pyridin-3-ylmethyl]-amide]	97	4030
CCC1(NCc2cncc(-c3ccc4c(c3)CCC(=O)N4C)c2)COC1 [Example 206, 6-{5-[(3-Ethyl-oxetan-3-ylamino)-methyl]-pyridin-3-yl}-1-methyl-3,4-dihydro-1H-quinolin-2-one]	10	237
CCS(=O)(=O)NCc1cncc(-c2cc3c(cc2Cl)N(C)C(=O)CC3)c1 [Example 207, Ethanesulfonic acid [5-(7-chloro-1-methyl-2-oxo-1,2,3,4-tetrahydro-quinolin-6-yl)-pyridin-3-ylmethyl]-amide]	44	2540
CCS(=O)(=O)NCc1cncc(-c2cc(F)c3c(c2)CCC(=O)N3C)c1 [Example 208, Ethanesulfonic acid [5-(8-fluoro-1-methyl-2-oxo-1,2,3,4-tetrahydro-quinolin-6-yl)-pyridin-3-ylmethyl]-amide]	59	4200
CCS(=O)(=O)NCc1cncc(-c2cc(Cl)c3c(c2)CCC(=O)N3C)c1 [Example 209, Ethanesulfonic acid [5-(8-chloro-1-methyl-2-oxo-1,2,3,4-tetrahydro-quinolin-6-yl)-pyridin-3-ylmethyl]-amide]	162	7540
CCS(=O)(=O)NCc1cncc(-c2ccc3c(c2F)CCC(=O)N3C)c1 [Example 210, Ethanesulfonic acid [5-(5-fluoro-1-methyl-2-oxo-1,2,3,4-tetrahydro-quinolin-6-yl)-pyridin-3-ylmethyl]-amide]	30	1340
CCS(=O)(=O)N(C)Cc1cncc(-c2cc3c(cc2F)N(C)C(=O)CC3)c1 [Example 211, Ethanesulfonic acid [5-(7-fluoro-1-methyl-2-oxo-1,2,3,4-tetrahydro-quinolin-6-yl)-pyridin-3-ylmethyl]-methyl-amide]	5	119
CCC(=O)NCc1cncc(-c2cc3c(cc2F)N(C)C(=O)CC3)c1 [Example 212, N-[5-(7-Fluoro-1-methyl-2-oxo-1,2,3,4-tetrahydro-quinolin-6-yl)-pyridin-3-ylmethyl]-propionamide]	51	4830
CC(C)(C)OC(=O)N1CC[C@H](Oc2cncc(-c3ccc4c(c3)CCC(=O)N4)c2)C1 [Example 214, (S)-3-[5-(2-oxo-1,2,3,4-tetrahydro-quinolin-6-yl)-pyridin-3-yloxy]-pyrrolidine-1-carboxylic acid tert-butyl ester]	30	104
CN(Cc1cncc(-c2cc(Cl)c3c(c2)CCC(=O)N3)c1)C(=O)c1ncccc1Cl [Example 216, 3-Chloro-pyridine-2-carboxylic acid [5-(8-chloro-2-oxo-1,2,3,4-tetrahydro-quinolin-6-yl)-pyridin-3-ylmethyl]-methyl-amide]	42	879
CN1C(=O)CCc2cc(-c3cncc(CN[S@+]([O-])C(C)(C)C)c3Cl)ccc21 [Example 217, (R)-2-Methyl-propane-2-sulfinic acid [4-chloro-5-(1-methyl-2-oxo-1,2,3,4-tetrahydro-quinolin-6-yl)-pyridin-3-ylmethyl]-amide]	29	1260
CN1C(=O)CCc2cc(-c3cncc(CN)c3Cl)ccc21 [Example 218, 6-(5-Aminomethyl-4-chloro-pyridin-3-yl)-1-methyl-3,4-dihydro-1H-quinolin-2-one hydrochloride]	29	1200

— US9260408B2, “Dihydroquinoline-2-one derivatives” (Hoffmann-La Roche Inc., priority 2011, dated 2016)
